Assay results reported in PMC5884906, “Single Administration of HBK-15—a Triple 5-HT1A, 5-HT7, and 5-HT3 Receptor Antagonist—Reverses Depressive-Like Behaviors in Mouse Model of Depression Induced by Corticosterone” (Molecular Neurobiology, 2017).
“And” between values parts separate entries of the source, which are not always exact repeats. Equal entries are not always repeated.

Assays:
[1] = system: corticosterone-treated mice; assay: forced swim test, chronic administration, corticosterone model; type: in vivo; conditions: for effect on corticosterone-induced increase in immobility: 21 days
Method: The dose and route of administration of corticosterone was based on studies performed by Zhao and colleagues. Thirty minutes before, corticosterone injection mice were given (i.p.) saline, HBK-14 (1.25 or 2.5 mg/kg), HBK-15 (0.625 or 1.25 mg/kg), or fluoxetine (10 mg/kg) (Fig. 1b). Control mice received (i.p.) saline and 30 min later saline containing 0.1% dimethyl sulfoxide (DMSO) and 0.1% Tween-80 (s.c.). The experimental groups consisted of eight randomly selected animals. After the end of the procedure, animals were tested in the sucrose preference test, forced swim test, elevated plus maze test, and spontaneous locomotor activity test. Following behavioral testing, rodents were scarified and their hippocampi collected for biochemical analysis. Forced swim test was performed according to the method described by Porsolt and colleagues and previously described. Mice were placed individually for 6 min in glass cylinders (height 25 cm, diameter 10 cm) containing […] (23–25 °C). The total time of immobility was recorded during the final 4 min of the test. The experiments were recorded and scored using aLab.io software by a trained observer blind to the treatments.

[2] = system: corticosterone-treated mice; assay: sucrose preference test, chronic administration, corticosterone model; type: in vivo; conditions: for effect on corticosterone-induced decrease in sucrose intake: 21 days
Method: The dose and route of administration of corticosterone was based on studies performed by Zhao and colleagues. Thirty minutes before, corticosterone injection mice were given (i.p.) saline, HBK-14 (1.25 or 2.5 mg/kg), HBK-15 (0.625 or 1.25 mg/kg), or fluoxetine (10 mg/kg) (Fig. 1b). Control mice received (i.p.) saline and 30 min later saline containing 0.1% dimethyl sulfoxide (DMSO) and 0.1% Tween-80 (s.c.). The experimental groups consisted of eight randomly selected animals. After the end of the procedure, animals were tested in the sucrose preference test, forced swim test, elevated plus maze test, and spontaneous locomotor activity test. Following behavioral testing, rodents were scarified and their hippocampi collected for biochemical analysis. The sucrose preference test was conducted according to the slightly modified methods described by Liu and colleagues and Filho and colleagues. The test was performed before and after the administration of corticosterone. Briefly, before the proper test, mice were housed singly and given 72 h training to acclimate to the test procedures. In the first 24 h, access ad libitum to two feeding bottles of 1% (w/v) sucrose solution was given to each mouse. After 24 h, one bottle was replaced with tap water for the next 24 h. Then, mice were deprived of water and food for the third 24 h. On the test day, the weight of each bottle (1% sucrose solution and tap water) was recorded. Test animals were then given the bottles of 1% sucrose and water for 24 h. The consumed liquid weight was measured based on the weight of each bottle of fluids after sucrose preference test minus the original starting weight. The percentage of sucrose intake was calculated using the following equation: %Sucrose intake=Sucrose intake/Sucrose intake+water intake⋅100%

[3] = system: corticosterone-treated mice; assay: spontaneous locomotor activity, chronic administration; type: in vivo; conditions: 6 min session
Method: The doses and route of administration of the studied compounds were based on our previous experiments. […] Mice were injected with corticosterone (s.c., 20 mg/kg) at random times during the light phase for 21 consecutive days (Fig. 1b). The dose and route of administration of corticosterone was based on studies performed by Zhao and colleagues. Thirty minutes before, corticosterone injection mice were given (i.p.) saline, HBK-14 (1.25 or 2.5 mg/kg), HBK-15 (0.625 or 1.25 mg/kg), or fluoxetine (10 mg/kg) (Fig. 1b). Control mice received (i.p.) saline and 30 min later saline containing 0.1% dimethyl sulfoxide (DMSO) and 0.1% Tween-80 (s.c.). The experimental groups consisted of eight randomly selected animals. After the end of the procedure, animals were tested in the sucrose preference test, forced swim test, elevated plus maze test, and spontaneous locomotor activity test. Following behavioral testing, rodents were scarified and their hippocampi collected for biochemical analysis. The locomotor activity was performed as previously described. Locomotor activity was recorded individually for each mouse using activity cages made of clear Perspex (40 cm × 40 cm × 31 cm, Activity Cage 7441, Ugo Basile, Italy). The cages were supplied with I.R. horizontal beam emitters connected to a counter for the recording of light-beam interruptions. Each mouse was placed in a cage for a 30-min habituation period. […] The cages were disinfected with 70% ethanol after each mouse.

[4] = system: NGF level in the hippocampus; assay: NGF level in the hippocampus (ELISA), chronic administration; type: in vivo, mice; conditions: for effect on corticosterone-induced decrease in NGF level in the hippocampus: 21 days
Method: (§1) The doses and route of administration of the studied compounds were based on our previous experiments. […] Mice were injected with corticosterone (s.c., 20 mg/kg) at random times during the light phase for 21 consecutive days (Fig. 1b). The dose and route of administration of corticosterone was based on studies performed by Zhao and colleagues. Thirty minutes before, corticosterone injection mice were given (i.p.) saline, HBK-14 (1.25 or 2.5 mg/kg), HBK-15 (0.625 or 1.25 mg/kg), or fluoxetine (10 mg/kg) (Fig. 1b). Control mice received (i.p.) saline and 30 min later saline containing 0.1% dimethyl sulfoxide (DMSO) and 0.1% Tween-80 (s.c.). The experimental groups consisted of eight randomly selected animals. After the end of the procedure, animals were tested in the sucrose preference test, forced swim test, elevated plus maze test, and spontaneous locomotor activity test. Following behavioral testing, rodents were scarified and their hippocampi collected for biochemical analysis. After the behavioral assessments, mice were sacrificed, and their brains were rapidly removed and chilled in an ice-cold saline solution. The hippocampi were dissected on a cold plate, frozen, and stored at −80 °C until assay. On the day of experiments, tissues were thawed on ice and homogenized (1:9 w/v) in phosphate-buffered saline (4 °C) and protease inhibitor cocktail was added. The 10% homogenates were prepared and homogenized for 30 s with TissueRuptor homogenizer. The homogenized tissues were centrifuged (2500×g at 4 °C for 20 min), and the supernatants were collected for further assays. Protein concentrations of BDNF and NGF in homogenates from hippocampi were determined using the enzyme-linked immunosorbent assay (ELISA) kits (BDNF: DZE201020014, SunRed Biotechnology Company; NGF: MBS825100, MyBioSource) according to the manufacturer’s instructions. […] The samples were analyzed in duplicates, and the mean concentrations were calculated. […] The intensity of the color was read at 450 nm. Absorbance was measured in a multifunction plate reader (POLARstar Omega, BMG Labtech, Germany). […]

[5] = system: BDNF level in the hippocampus; assay: BDNF level in the hippocampus (ELISA), chronic administration; type: in vivo, mice; conditions: for effect on corticosterone-induced decrease in BDNF level in the hippocampus: 21 days
Method: as §1

[6] = 1.25 mg/kg i.p. 21 days + corticosterone
[7] = corticosterone 20 mg/kg s.c. 21 days + saline

COc1ccccc1N1CCN(CCOCCOc2c(C)cccc2C)CC1.Cl [HBK-14, 1-[(2,6-Dimethylphenoxy)ethoxyethyl]-4-(2-methoxyphenyl)piperazine hydrochloride]
effect on corticosterone-induced increase in immobility ([1]; 1.25 or 2.5 mg/kg i.p.): inactive
effect on corticosterone-induced decrease in sucrose intake ([2]; 1.25 or 2.5 mg/kg i.p.): inactive
Number of crossings ± S.E.M [3, 6]: 406.3 ± 64.2
Number of crossings ± S.E.M ([3]; 2.5 mg/kg i.p. 21 days + corticosterone): 400.8 ± 55.8

COc1ccccc1N1CCN(CCOCCOc2c(C)cccc2Cl)CC1.Cl [HBK-15, 1-[(2-chloro-6-methylphenoxy)ethoxyethyl]-4-(2-methoxyphenyl)piperazine hydrochloride]
effect on corticosterone-induced decrease in NGF level in the hippocampus ([4]; 1.25 mg/kg i.p.): protected corticosterone-treated mice from the decrease in the NGF level
effect on corticosterone-induced increase in immobility ([1]; 1.25 mg/kg i.p.): prevented an increase in immobility
effect on corticosterone-induced decrease in sucrose intake ([2]; 1.25 mg/kg i.p.): prevented the decrease in sucrose intake
Number of crossings ± S.E.M ([3]; 0.625 mg/kg i.p. 21 days + corticosterone): 466.1 ± 84.8
Number of crossings ± S.E.M [3, 6]: 478.9 ± 78.8
effect on corticosterone-induced decrease in BDNF level in the hippocampus ([5]; 1.25 mg/kg i.p.): protected corticosterone-treated mice from the decrease in the BDNF level

C[C@]12C[C@H](O)[C@H]3[C@@H](CCC4=CC(=O)CC[C@@]43C)[C@@H]1CC[C@@H]2C(=O)CO [corticosterone]
decrease in NGF level in the hippocampus vs control [4, 7]: 35%
increase in immobility vs control [1, 7]: 14% and 21%
decrease in percentage intake of sucrose solution vs control [2, 7]: 17% and 21%
Number of crossings ± S.E.M [3, 7]: 343.4 ± 27.3 and 394.5 ± 67.1
decrease in BDNF level in the hippocampus vs control [5, 7]: 44.0%

CNCCC(Oc1ccc(C(F)(F)F)cc1)c1ccccc1 (centres unmarked) [fluoxetine, reference compound]
effect on corticosterone-induced decrease in NGF level in the hippocampus ([4]; 10 mg/kg i.p.): protected corticosterone-treated mice from the decrease in the NGF level
effect on corticosterone-induced increase in immobility ([1]; 10 mg/kg i.p.): prevented an increase in immobility
effect on corticosterone-induced decrease in sucrose intake ([2]; 10 mg/kg i.p.): prevented the decrease in sucrose intake
Number of crossings ± S.E.M ([3]; 10 mg/kg i.p. 21 days + corticosterone): 510.3 ± 54.0 and 423.3 ± 47.3
effect on corticosterone-induced decrease in BDNF level in the hippocampus ([5]; 10 mg/kg i.p.): protected corticosterone-treated mice from the decrease in the BDNF level
